Twelve compounds from PubChem BioAssay AID326 (DTP/NCI, 2004) can be followed below.

“And” between values parts separate entries of the source, which are not always exact repeats. Equal entries are not always repeated. Toxic doses and inconclusive results are not listed. Numbered stars: 1 amine (or outer) side, 2 acyl side, 3 side chain; on linkers, the order of the positions; unused ones are H or OH. Bridge positions count the residues as written; N and C are the ends. Square brackets hold non-standard residues; d marks the D form. Peptide text beside a SMILES is read from it. I, II: the chains in the order shown. Actinocin(9to1) = Cc1c2oc3c(C)ccc(C(=O)[*:1])c3nc-2c(C(=O)[*:2])c(N)c1=O; aThr = C[C@H](O)[C@H](N)C(=O)O; NMeV = CN[C@H](C(=O)O)C(C)C; Sar = CNCC(=O)O

In the assay the test system is CD2F1 mice, P388/DHAQ leukemia ip, median survival T/C. The assay is described as follows: NCI In Vivo Anticancer Drug Screen. Data for tumor model P388 Leukemia resistant to Dihydroxy Anthracenedione; NSC 299195 (intraperitoneal) in CD2F1 (CDF1) mice. Particulars: endpoint: median survival time, higher = longer survival. As for the experimental part: The antitumor activity of compounds was measured in mice bearing transplantable tumors. Survival or tumor size were measured and the results are expressed as the measurement made in the treated group (T) divided by the measurement made in the vehicle treated control group (C). The tumor model used in this assay is P388 Leukemia resistant to Dihydroxy Anthracenedione; NSC 299195 (intraperitoneal) in CD2F1 (CDF1) mice

Where [1] appears, read: dose: 7.78 mg/kg/injection, schedule: Q04DX003 (ip), vehicle: saline.
[2] abbreviates: dose: 36.0 mg/kg/injection, schedule: Q04DX003 (ip), vehicle: saline.
Where [3] appears, read: dose: 13.0 mg/kg/injection, schedule: Q04DX003 (ip), vehicle: saline.
Setting [4] is: dose: 21.6 mg/kg/injection, schedule: Q04DX003 (ip), vehicle: saline.
The mark [5] stands for this setting: dose: 60.0 mg/kg/injection, schedule: Q04DX003 (ip), vehicle: saline.
Where [6] appears, read: dose: 4.32 mg/kg/injection, schedule: Q04DX003 (ip), vehicle: saline.

Regarding `Cc1c2oc3c(C)ccc(C(=O)N[C@@H]4C(=O)N[C@H](C(C)C)C(=O)N5CCC[C@H]5C(=O)N(C)CC(=O)N(C)[C@@H](C(C)C)C(=O)O[C@H]4C)c3nc-2c(C(=O)N[C@@H]2C(=O)N[C@H](C(C)C)C(=O)N3CCC[C@H]3C(=O)N(C)CC(=O)N(C)[C@@H](C(C)C)C(=O)O[C@H]2C)c(N)c1=O` (I: [aThr][dV]P[Sar][NMeV] / II: [aThr][dV]P[Sar][NMeV]; ester I:1-I:C, II:1-II:C; linker I:N-II:N via Actinocin(9to1)), the T/C is 152 % of control and 154 % of control (dose: 108.0 micrograms/kg/injection, schedule: Q04DX003 (ip), vehicle: saline + alcohol); 152 % of control (dose: 130.0 micrograms/kg/injection, schedule: Q04DX003 (ip), vehicle: saline + alcohol); 157 % of control and 176 % of control (dose: 180.0 micrograms/kg/injection, schedule: Q04DX003 (ip), vehicle: saline + alcohol); 200 % of control (dose: 216.0 micrograms/kg/injection, schedule: Q04DX003 (ip), vehicle: saline + alcohol); 192 % of control and 201 % of control (dose: 300.0 micrograms/kg/injection, schedule: Q04DX003 (ip), vehicle: saline + alcohol); 206 % of control (dose: 360.0 micrograms/kg/injection, schedule: Q04DX003 (ip), vehicle: saline + alcohol). The T/C (dose: 500.0 micrograms/kg/injection, schedule: Q04DX003 (ip), vehicle: saline + alcohol) was 209 % of control and the T/C (dose: 600.0 micrograms/kg/injection, schedule: Q04DX003 (ip), vehicle: saline + alcohol) is 227 % of control.
Turning to `COC(=O)C[C@](O)(CCCC(C)(C)O)C(=O)O[C@@H]1C(OC)=C[C@]23CCCN2CCc2cc4c(cc2[C@H]13)OCO4`, the T/C was 116 % of control (dose: 3.0 mg/kg/injection, schedule: Q04DX003 (ip), vehicle: saline) and 154 % of control (dose: 3.33 mg/kg/injection, schedule: Q04DX003 (ip), vehicle: saline).
Take `O=NN(CCCl)C(=O)NCCCl`: the T/C is 193 % of control (dose: 5.4 mg/kg/injection, schedule: Q04DX003 (ip), vehicle: saline + alcohol); 150 % of control (dose: 6.48 mg/kg/injection, schedule: Q04DX002 (ip), vehicle: saline + alcohol); 319 % of control (dose: 9.0 mg/kg/injection, schedule: Q04DX003 (ip), vehicle: saline + alcohol); 168 % of control and 205 % of control (dose: 10.8 mg/kg/injection, schedule: Q04DX002 (ip), vehicle: saline + alcohol); 463 % of control (dose: 15.0 mg/kg/injection, schedule: Q04DX003 (ip), vehicle: saline + alcohol); 317 % of control and 412 % of control (dose: 18.0 mg/kg/injection, schedule: Q04DX002 (ip), vehicle: saline + alcohol). Besides, the T/C (dose: 25.0 mg/kg/injection, schedule: Q04DX003 (ip), vehicle: saline + alcohol) is 463 % of control; the T/C (dose: 30.0 mg/kg/injection, schedule: Q04DX002 (ip), vehicle: saline + alcohol) is 412 % of control and 420 % of control.
With `CC[C@](O)(C(=O)O)c1cc2n(c(=O)c1CO)Cc1cc3ccccc3nc1-2`, the T/C (dose: 6.48 mg/kg/injection, schedule: Q04DX003 (ip), vehicle: saline) was 102 % of control and 117 % of control and 121 % of control; the T/C under setting [1] was 121 % of control; the T/C (dose: 10.8 mg/kg/injection, schedule: Q04DX003 (ip), vehicle: saline) is 115 % of control and 120 % of control; the T/C (dose: 18.0 mg/kg/injection, schedule: Q04DX003 (ip), vehicle: saline) was 115 % of control; the T/C (dose: 30.0 mg/kg/injection, schedule: Q04DX003 (ip), vehicle: saline) is 155 % of control; the T/C under setting [2] is 164 % of control. Under “dose: 50.0 mg/kg/injection, schedule: Q04DX003 (ip), vehicle: saline”, the T/C was 180 % of control.
As for `NCCCN=c1ccc2c3c1c(O)c1c(O)ccc(=O)c1c3[nH]n2CCNCCO`, the T/C is, setting by setting: (dose: 9.72 mg/kg/injection, schedule: Q04DX002 (ip), vehicle: water) 124 % of control; (dose: 27.0 mg/kg/injection, schedule: Q04DX002 (ip), vehicle: water) 97 % of control; (dose: 45.0 mg/kg/injection, schedule: Q04DX002 (ip), vehicle: water) 97 % of control.
Regarding `O=C1c2ccccc2C(=O)c2c(NCCNCCO)ccc(NCCNCCO)c21`, the T/C is, setting by setting: under setting [3], 109 % of control; under setting [4], 120 % of control; under setting [2], 123 % of control; under setting [5], 108 % of control.
As to `O=c1[nH]cc(F)c(=O)[nH]1`, the T/C runs as follows: under setting [3], 104 % of control; under setting [5], 116 % of control and 226 % of control; (dose: 100.0 mg/kg/injection, schedule: Q04DX003 (ip), vehicle: saline) 109 % of control.
With `COc1cc([C@@H]2c3cc4c(cc3[C@@H](OC3OC5CO[C@@H](c6cccs6)OC5C(O)C3O)[C@H]3COC(=O)[C@H]23)OCO4)cc(OC)c1O` (stereo not given in full), the T/C reads like this: (dose: 3.89 mg/kg/injection, schedule: Q04DX003 (ip), vehicle: clinical formulation) 114 % of control; (dose: 3.89 mg/kg/injection, schedule: Q04DX003 (ip), vehicle: saline) 118 % of control; (dose: 6.48 mg/kg/injection, schedule: Q04DX003 (ip), vehicle: clinical formulation) 121 % of control; under setting [1], 108 % of control; (dose: 10.8 mg/kg/injection, schedule: Q04DX003 (ip), vehicle: clinical formulation) 122 % of control; under setting [3], 108 % of control. The T/C is, setting by setting: under setting [4], 111 % of control; under setting [2], 120 % of control.
In the case of `C[n+]1ccc(Nc2ccc(NC(=O)c3ccc(Nc4cc[n+](C)c5ccc(N)cc45)cc3)cc2)cc1`, the T/C reads like this: (dose: 1.94 mg/kg/injection, schedule: Q04DX003 (ip), vehicle: water) 114 % of control; (dose: 3.24 mg/kg/injection, schedule: Q04DX003 (ip), vehicle: water) 116 % of control; (dose: 5.4 mg/kg/injection, schedule: Q04DX003 (ip), vehicle: water) 116 % of control.
As to `COc1cc(NS(C)(=O)=O)ccc1Nc1c2ccccc2nc2ccccc12`, the T/C reads like this: (dose: 2.59 mg/kg/injection, schedule: Q04DX002 (ip), vehicle: other) 108 % of control and 114 % of control (2×); (dose: 2.59 mg/kg/injection, schedule: Q04DX003 (ip), vehicle: saline) 107 % of control; under setting [6], 117 % of control.
For the compound `N[C@@H](Cc1ccc(N(CCCl)CCCl)cc1)C(=O)O`, the T/C was 114 % of control and 119 % of control and 120 % of control (dose: 1.94 mg/kg/injection, schedule: Q04DX002 (ip), vehicle: saline); 106 % of control (dose: 1.94 mg/kg/injection, schedule: Q04DX003 (ip), vehicle: saline); 117 % of control and 118 % of control (dose: 3.24 mg/kg/injection, schedule: Q04DX002 (ip), vehicle: saline); 117 % of control (dose: 3.24 mg/kg/injection, schedule: Q04DX003 (ip), vehicle: saline); 157 % of control and 160 % of control and 163 % of control (dose: 9.0 mg/kg/injection, schedule: Q04DX002 (ip), vehicle: saline); 157 % of control (dose: 9.0 mg/kg/injection, schedule: Q04DX003 (ip), vehicle: saline). The T/C is 102 % of control and 118 % of control (dose: 15.0 mg/kg/injection, schedule: Q04DX002 (ip), vehicle: saline); 152 % of control and 156 % of control (dose: 15.0 mg/kg/injection, schedule: Q04DX003 (ip), vehicle: saline).
For the compound `CC[C@@]1(O)C[C@H](OC2CC(N(C)C)C(OC3CC(O)C(OC4CCC(=O)C(C)O4)C(C)O3)C(C)O2)c2c(cc3c(c2O)C(=O)c2c(O)ccc(O)c2C3=O)[C@H]1C(=O)OC` (stereo not given in full), the T/C runs as follows: (dose: 1.56 mg/kg/injection, schedule: Q04DX003 (ip), vehicle: saline) 116 % of control; under setting [6], 162 % of control; (dose: 7.2 mg/kg/injection, schedule: Q04DX003 (ip), vehicle: saline) 189 % of control and 190 % of control and 220 % of control.
